Assay results reported in paper PMC6018554, “2-[2-(4-(trifluoromethyl)phenylamino)thiazol-4-yl]acetic acid (Activator-3) is a potent activator of AMPK” (Scientific Reports, 2018).
“Also recorded” adds a separate entry of the source. Read-outs that look alike come from different tables or passages of the source.

Tests used:
[1] = target: human recombinant AMPK α2β1γ1 (Homo sapiens, UniProt P54619); experiment: Phosphatase protection assay (PP2C); format: biochemical; set-up: host or cells: baculovirus expression; conditions: 10–100 nM
Chain of human recombinant AMPK α2β1γ1 (P54619 whole entry): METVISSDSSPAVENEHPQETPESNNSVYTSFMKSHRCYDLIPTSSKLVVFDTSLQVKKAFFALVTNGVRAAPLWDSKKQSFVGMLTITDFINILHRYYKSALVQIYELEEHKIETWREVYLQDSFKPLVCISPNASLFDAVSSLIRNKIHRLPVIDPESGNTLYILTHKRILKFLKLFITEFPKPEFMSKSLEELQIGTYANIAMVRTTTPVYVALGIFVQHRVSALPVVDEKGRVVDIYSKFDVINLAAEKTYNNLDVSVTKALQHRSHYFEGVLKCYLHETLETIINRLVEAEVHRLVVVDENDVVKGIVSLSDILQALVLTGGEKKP
Chain of human recombinant AMPK α2β1γ1 (P54646 whole entry partner): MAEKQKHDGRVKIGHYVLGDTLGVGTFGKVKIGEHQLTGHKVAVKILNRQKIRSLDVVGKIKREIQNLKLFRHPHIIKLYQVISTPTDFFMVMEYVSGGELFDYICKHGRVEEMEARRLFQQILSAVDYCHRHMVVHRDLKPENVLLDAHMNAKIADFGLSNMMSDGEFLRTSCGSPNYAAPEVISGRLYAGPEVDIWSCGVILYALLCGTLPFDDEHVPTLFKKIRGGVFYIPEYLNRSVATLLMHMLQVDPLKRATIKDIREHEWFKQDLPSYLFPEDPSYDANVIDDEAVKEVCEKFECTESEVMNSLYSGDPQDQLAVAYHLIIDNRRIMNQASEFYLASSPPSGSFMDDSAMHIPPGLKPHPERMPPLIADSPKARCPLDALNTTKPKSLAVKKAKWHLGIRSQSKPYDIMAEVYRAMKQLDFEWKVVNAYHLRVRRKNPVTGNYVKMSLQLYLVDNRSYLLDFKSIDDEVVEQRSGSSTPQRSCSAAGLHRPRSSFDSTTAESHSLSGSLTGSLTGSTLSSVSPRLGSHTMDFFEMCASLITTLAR
Chain of human recombinant AMPK α2β1γ1 (Q9Y478 whole entry partner): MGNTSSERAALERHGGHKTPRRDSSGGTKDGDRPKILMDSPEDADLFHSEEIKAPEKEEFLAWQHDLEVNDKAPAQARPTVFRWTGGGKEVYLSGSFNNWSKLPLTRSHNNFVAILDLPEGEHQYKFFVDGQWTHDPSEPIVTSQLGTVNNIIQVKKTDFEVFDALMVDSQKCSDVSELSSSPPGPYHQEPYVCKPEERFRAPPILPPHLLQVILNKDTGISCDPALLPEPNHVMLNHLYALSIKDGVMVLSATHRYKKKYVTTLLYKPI
Experimental: The reaction was stopped by adding SDS-loading dye immediately to the reaction mixtures followed by boiling the samples at 95 °C for 10′. These samples were run on a 10% SDS-PAGE and probed for AMPK and pAMPK (1:1000; Cell Signaling Technologies).

Adenylate kinase = experiment: AK activity assay kit; format: biochemical
[2] = system: panel of 100 protein kinases; experiment: Cell-free kinase panel (Kinexus), whole panel; format: biochemical; conditions: 10 µM
Experimental: (§1) To determine whether Activator-3 affects the activity of any other protein kinases, we screened it in cell-free assays against a panel of 100 protein kinases (Kinexus, Canada). […] Three kinases, DDR1 (−79%), SRC (−71%) and ALK5 (−61%) were inhibited by Activator-3 by more than 50% at 10 µM.

LKB1 = target: T1, LKB1 (Homo sapiens, UniProt Q15831); experiment: Cell-free kinase assay (Kinexus); format: biochemical
T1 construct: purchased Kinexus, Canada (screening service)
T1 sequence (Q15831 whole entry, species assumed): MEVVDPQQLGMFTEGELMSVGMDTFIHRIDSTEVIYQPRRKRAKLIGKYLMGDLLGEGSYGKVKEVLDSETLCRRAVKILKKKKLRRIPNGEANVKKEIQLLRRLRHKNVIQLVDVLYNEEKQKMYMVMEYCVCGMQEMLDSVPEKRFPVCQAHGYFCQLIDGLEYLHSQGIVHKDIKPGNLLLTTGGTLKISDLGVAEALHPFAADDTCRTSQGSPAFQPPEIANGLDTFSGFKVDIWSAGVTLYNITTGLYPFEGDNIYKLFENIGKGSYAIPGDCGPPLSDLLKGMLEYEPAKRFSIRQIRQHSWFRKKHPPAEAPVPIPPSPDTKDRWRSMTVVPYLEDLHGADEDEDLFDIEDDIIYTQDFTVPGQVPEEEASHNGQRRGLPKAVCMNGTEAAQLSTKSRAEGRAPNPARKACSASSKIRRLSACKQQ
T1 sequence (Q7RTN6 whole entry partner, species assumed): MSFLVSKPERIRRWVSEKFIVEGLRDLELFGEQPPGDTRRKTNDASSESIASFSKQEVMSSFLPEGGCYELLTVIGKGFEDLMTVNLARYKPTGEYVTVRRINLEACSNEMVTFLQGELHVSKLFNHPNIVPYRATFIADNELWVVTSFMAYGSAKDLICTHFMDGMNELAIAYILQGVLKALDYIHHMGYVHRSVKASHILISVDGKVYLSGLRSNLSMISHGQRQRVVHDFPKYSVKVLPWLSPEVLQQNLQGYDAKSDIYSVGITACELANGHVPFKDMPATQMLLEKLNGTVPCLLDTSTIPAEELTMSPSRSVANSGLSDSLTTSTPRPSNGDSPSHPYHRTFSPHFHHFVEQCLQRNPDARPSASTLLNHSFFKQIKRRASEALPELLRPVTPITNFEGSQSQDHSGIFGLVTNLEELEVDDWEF
T1 sequence (Q9Y376 whole entry partner, species assumed): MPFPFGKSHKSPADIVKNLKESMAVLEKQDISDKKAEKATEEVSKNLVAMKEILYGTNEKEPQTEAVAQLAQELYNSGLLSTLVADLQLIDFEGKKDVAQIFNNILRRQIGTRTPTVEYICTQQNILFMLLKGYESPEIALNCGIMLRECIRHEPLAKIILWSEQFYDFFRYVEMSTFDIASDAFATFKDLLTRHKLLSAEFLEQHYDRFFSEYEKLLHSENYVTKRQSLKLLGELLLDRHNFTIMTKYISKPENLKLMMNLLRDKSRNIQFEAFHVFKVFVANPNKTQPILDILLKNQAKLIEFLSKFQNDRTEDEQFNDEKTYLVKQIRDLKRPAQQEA
Experimental: as §1
Table S2: Activity change observed in the LKB1 Kinase tested against Activator-3 at 200μM
Protein Kinase (CPM) (CPM) % Change
Table S3: Evaluating the goodness of the representative structure obtained from MD
simulations using PROCHECK server.
Ramchandran Map No. of resides Percentage
Most favored regions 889 85.8%
Additional allowed regions 128 12.4%
Generously allowed regions 13 1.3%
Disallowed regions 6 0.6%
Non-glycine and non-proline residues 1036 100.0%
Table S4: Heterotrimeric human AMPK crystal structures available in PDB.
PDBID Isoform Organism Inhibitor and/or activator Modifications References
Staurosporine, 108-SEP Lagendorf et al. 20161
5EZV α2β1γ1 Homo sapiens C2Z, C1V, Staurosporine 172-TPO […]

[3] = Pharmacokinetic study in male rats; format: in vivo, rat
Experimental: Male SD rats were orally administered 30 mg/Kg of Activator-3. Blood and brain samples were collected at specified time points and were analyzed for Activator-3 using a LC-MS/MS method[64]–[66]. […] The human plasma protein binding was ~80% (data not shown). […] Systemic exposure of Activator-3 was very high in plasma compared to brain.
Male SD rats were orally administered with 30 mg/Kg of Activator-3. Blood and brain samples were collected at specified time points and were analyzed for Activator-3 using optimized LC-MS/MS method[64]–[66].

PFK1 = experiment: PFK activity assay kit; format: biochemical; conditions: Activator-3 at 10 µM (≤10 µM)
LRRK2 = target: T2, LRRK2 (Homo sapiens, UniProt Q5S007); experiment: Cell-free kinase panel (Kinexus); format: biochemical; conditions: 10 µM
T2 construct: purchased Kinexus, Canada (screening service)
Experimental: as §1

SRC = target: T3, SRC (Homo sapiens, UniProt P12931); experiment: Cell-free kinase panel (Kinexus); format: biochemical; conditions: 10 µM
T3 construct: purchased Kinexus, Canada (screening service)
T3 sequence (P12931 whole entry, species assumed): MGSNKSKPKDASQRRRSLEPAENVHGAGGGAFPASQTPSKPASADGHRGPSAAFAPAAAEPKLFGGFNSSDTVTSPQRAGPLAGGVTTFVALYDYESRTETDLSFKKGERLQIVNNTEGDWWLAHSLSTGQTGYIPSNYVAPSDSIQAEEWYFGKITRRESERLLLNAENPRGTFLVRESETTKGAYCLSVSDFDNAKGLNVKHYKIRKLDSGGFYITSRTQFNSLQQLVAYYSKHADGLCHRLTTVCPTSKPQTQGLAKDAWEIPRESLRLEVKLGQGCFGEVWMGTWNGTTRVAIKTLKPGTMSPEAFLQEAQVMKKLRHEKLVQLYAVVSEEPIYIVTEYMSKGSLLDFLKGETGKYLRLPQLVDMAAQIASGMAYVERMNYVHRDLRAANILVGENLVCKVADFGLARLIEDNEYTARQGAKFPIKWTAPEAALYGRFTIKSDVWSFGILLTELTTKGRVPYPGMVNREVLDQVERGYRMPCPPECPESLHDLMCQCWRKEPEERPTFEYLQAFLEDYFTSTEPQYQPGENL
Experimental: as §1

ALK5 = target: T4, ALK5 (Homo sapiens, UniProt P36897); experiment: Cell-free kinase panel (Kinexus); format: biochemical; conditions: 10 µM
T4 construct: purchased Kinexus, Canada (screening service)
T4 sequence (P36897 34-503, species assumed): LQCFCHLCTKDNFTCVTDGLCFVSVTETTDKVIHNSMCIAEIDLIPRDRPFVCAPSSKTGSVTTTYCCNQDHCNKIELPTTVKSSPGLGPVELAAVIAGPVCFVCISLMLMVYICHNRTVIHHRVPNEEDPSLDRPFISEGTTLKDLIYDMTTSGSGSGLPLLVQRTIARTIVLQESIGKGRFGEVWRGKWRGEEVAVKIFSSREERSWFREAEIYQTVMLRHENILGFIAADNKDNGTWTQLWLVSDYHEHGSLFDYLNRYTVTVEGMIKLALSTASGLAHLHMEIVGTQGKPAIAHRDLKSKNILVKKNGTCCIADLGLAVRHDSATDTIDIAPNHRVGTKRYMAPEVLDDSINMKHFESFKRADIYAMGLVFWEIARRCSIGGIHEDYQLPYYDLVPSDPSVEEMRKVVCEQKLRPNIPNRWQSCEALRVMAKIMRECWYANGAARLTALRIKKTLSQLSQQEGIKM
Experimental: as §1

PAK1 = target: T5, PAK1 (Homo sapiens, UniProt Q13153); experiment: Cell-free kinase panel (Kinexus); format: biochemical; conditions: 10 µM
T5 construct: purchased Kinexus, Canada (screening service)
Experimental: as §1

DDR1 = target: T6, DDR1 (Homo sapiens, UniProt Q08345); experiment: Cell-free kinase panel (Kinexus); format: biochemical; conditions: 10 µM
T6 construct: purchased Kinexus, Canada (screening service)
Experimental: as §1

ROR2 = target: T7, ROR2 (Homo sapiens, UniProt Q01974); experiment: Cell-free kinase panel (Kinexus); format: biochemical; conditions: 10 µM
T7 construct: purchased Kinexus, Canada (screening service)
Experimental: as §1

CAMKK2 = target: T8, CAMKK2 (Homo sapiens, UniProt Q96RR4); experiment: Cell-free kinase panel (Kinexus); format: biochemical
T8 construct: purchased Kinexus, Canada (screening service)
Experimental: as §1

TAK1 = target: T9, TAK1 (Homo sapiens, UniProt O43318); experiment: Cell-free kinase panel (Kinexus); format: biochemical; conditions: 10 µM
T9 construct: purchased Kinexus, Canada (screening service)
Experimental: as §1

PRK1 = target: T10, PRK1 (Homo sapiens, UniProt Q16512); experiment: Cell-free kinase panel (Kinexus); format: biochemical; conditions: 10 µM
T10 construct: purchased Kinexus, Canada (screening service)
Experimental: as §1

[4] = target: T11, recombinant human AMPK α1β1γ1 (Homo sapiens, UniProt P54619); experiment: In vitro AMP kinase assay (pACC ELISA), α1β1γ1; format: biochemical
T11 construct: purchased SignalChem P47-10H-05/P48-10H-05 (for all four isozymes together); host or cells: baculovirus expression
T11 sequence (P54619 whole entry): as the sequence (P54619 whole entry) above
T11 sequence (Q13131 whole entry partner): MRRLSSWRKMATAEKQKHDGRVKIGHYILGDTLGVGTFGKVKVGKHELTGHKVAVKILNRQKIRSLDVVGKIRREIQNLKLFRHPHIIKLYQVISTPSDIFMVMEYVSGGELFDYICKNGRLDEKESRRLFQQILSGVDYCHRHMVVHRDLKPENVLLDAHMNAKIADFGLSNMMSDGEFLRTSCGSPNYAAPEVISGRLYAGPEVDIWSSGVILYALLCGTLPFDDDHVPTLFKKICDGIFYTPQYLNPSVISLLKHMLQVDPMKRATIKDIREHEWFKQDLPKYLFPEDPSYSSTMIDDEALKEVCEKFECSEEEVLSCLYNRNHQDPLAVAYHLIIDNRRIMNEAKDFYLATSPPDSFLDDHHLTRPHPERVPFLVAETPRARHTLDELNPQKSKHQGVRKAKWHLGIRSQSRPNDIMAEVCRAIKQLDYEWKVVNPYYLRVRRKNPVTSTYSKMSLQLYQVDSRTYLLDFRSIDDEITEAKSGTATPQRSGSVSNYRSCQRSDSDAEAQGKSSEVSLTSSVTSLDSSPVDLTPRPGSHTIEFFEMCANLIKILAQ
T11 sequence (Q9Y478 whole entry partner): as the sequence (Q9Y478 whole entry partner) above
Text: (§2) Having observed the effect of Activator-3 on the activation of AMPK in cell based assays, we next examined whether Activator-3 could activate AMPK directly or not. […] The activity of recombinant human AMPK (α1β1γ1, α2β1γ1, α2β2γ2 and α2β2γ3) in the presence of vehicle was considered as 100%. The EC50 of Activator-3 for the activation of α1β1γ1, α2β1γ1 and α2β2γ2 isozymes were similar. However, the activity of Activator-3 against α2β2γ3 was marginally higher (Fig. 1C).
(§3) A high binding Enzyme Immuno Assay (EIA) 96-well plate (Sigma: Cat# CLS3590) was coated with Acetyl CoA Carboxylase 2 (ACC: 175–271 amino acids) peptide, a direct substrate for AMPK, 100 ng per well (1:1000 ratio, Cat# 12–491, Upstate biotechnology) and incubated overnight at 25 °C. Reaction mixture was incubated at 30 °C for 2 h and reaction was stopped by washing the plate with 0.05% Tween 20 followed by incubation with pACC primary antibody and rabbit secondary antibody as described in cell based ELISA section. Assay buffer is composed of 10 mM DTT, 100 mM magnesium acetate, 50 μM ATP and 10 mM HEPES.

[5] = target: T12, recombinant human AMPK α2β2γ2 (Homo sapiens, UniProt Q9UGJ0); experiment: In vitro AMP kinase assay (pACC ELISA), α2β2γ2; format: biochemical
T12 construct: purchased SignalChem; host or cells: baculovirus expression
T12 sequence (Q9UGJ0 whole entry): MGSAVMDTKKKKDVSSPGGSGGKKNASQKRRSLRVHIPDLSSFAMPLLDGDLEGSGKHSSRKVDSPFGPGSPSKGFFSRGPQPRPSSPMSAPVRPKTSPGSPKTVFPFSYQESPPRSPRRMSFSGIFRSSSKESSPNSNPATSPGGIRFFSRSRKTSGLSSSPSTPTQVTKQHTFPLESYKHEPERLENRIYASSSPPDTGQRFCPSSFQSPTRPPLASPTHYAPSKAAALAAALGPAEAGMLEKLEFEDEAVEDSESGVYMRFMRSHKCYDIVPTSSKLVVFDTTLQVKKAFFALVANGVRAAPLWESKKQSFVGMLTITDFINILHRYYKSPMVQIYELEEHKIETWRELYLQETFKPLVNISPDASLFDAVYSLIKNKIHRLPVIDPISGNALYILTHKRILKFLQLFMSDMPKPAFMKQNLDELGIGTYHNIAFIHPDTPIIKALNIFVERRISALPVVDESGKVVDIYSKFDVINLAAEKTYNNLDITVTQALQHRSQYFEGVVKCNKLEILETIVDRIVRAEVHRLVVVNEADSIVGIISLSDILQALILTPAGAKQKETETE
T12 sequence (P54646 whole entry partner): as the sequence (P54646 whole entry partner) above
T12 sequence (O43741 whole entry partner): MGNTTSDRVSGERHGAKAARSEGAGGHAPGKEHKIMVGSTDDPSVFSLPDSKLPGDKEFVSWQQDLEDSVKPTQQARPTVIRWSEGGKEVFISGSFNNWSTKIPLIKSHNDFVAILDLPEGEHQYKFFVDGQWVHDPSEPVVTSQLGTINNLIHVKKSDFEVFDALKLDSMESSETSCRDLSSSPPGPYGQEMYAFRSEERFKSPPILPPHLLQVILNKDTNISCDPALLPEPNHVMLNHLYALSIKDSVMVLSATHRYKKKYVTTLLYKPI
Text: as §2, §3

[6] = Activator-3 1 nM to 10 μM with 100 µM AMP

SMILES: O=C(O)Cc1csc(Nc2ccc(C(F)(F)F)cc2)n1 [Activator-3, 2-[2-(4-(trifluoromethyl)phenylamino)thiazol-4-yl]acetic acid]
- protection against PP2C mediated dephosphorylation of Thr172 AMPK [1]: provided protection
- effect on Adenylate kinase activity (Adenylate kinase; 1 µM): minimally affected
- effect on Adenylate kinase activity (Adenylate kinase; ≤10 µM): unaffected
- effect on kinase activity, majority of panel [2]: not affected
- effect on kinase activity (LKB1; 10 µM): not affected
- % Change (LKB1; 200μM, Control 10984 CPM, Test 11638 CPM): 5%
- t1/2 ([3]; male SD rats, oral 30 mg/Kg, plasma, 30 mg/kg): ~ 4 h
- level in brain / brain penetration ([3]; male SD rats, oral 30 mg/Kg, 30 mg/kg): No significant level; also recorded: no brain penetration
- half-life ([3]; male, SD, rat, plasma, po, 30 mg/kg, male SD rats, oral 30 mg/Kg): 4.11 h
- bioavailability ([3]; rat, oral): good bioavailability
- Cmax ([3]; rat, plasma, male SD rats, oral 30 mg/Kg, read-out: Cmax in plasma): ~109 µg/mL
- Cmax ([3]; rat, plasma, male SD rats, oral 30 mg/Kg, read-out: Cmax in plasma, molar): ~360 µM
- AUC ([3]; rat, plasma, male SD rats, oral 30 mg/Kg, read-out: Systemic exposure in plasma (AUC)): ~978 µg·h/mL
- AUC ([3]; rat, plasma, male SD rats, oral 30 mg/Kg, read-out: Systemic exposure in plasma (AUC), molar): ~3300 µM·h
- effect on PFK1 activity (PFK1): unaffected; also recorded: no effect
- activity change (LRRK2): −34%
- activity change (SRC): −71%
- activity change (ALK5): −61%
- activity change (PAK1): −42%
- activity change (DDR1): −79%
- activity change (ROR2): −35%
- inhibition at 10 µM (CAMKK2): 36%
- effect on kinase activity (TAK1): not affected
- activity change (PRK1): −36%
- cooperativity of AMPK activation at high ATP ([4]; ATP 2 mM vs 20 µM, Activator-3 0–1 µM): does not exhibit co-operative binding
- reduction of AMPK activity stimulated by 100 µM AMP [4, 6]: ~ 50%
- EC50 ([4]; read-out: EC50 allosteric activation hα1β1γ1): ~38 nM
- change of AMPK activity stimulated by 100 µM AMP [5, 6]: minimal decrease
- EC50 ([5]; read-out: EC50 allosteric activation hα2β2γ2): ~26 nM
